Test results from patent US20230086152A1, “USE OF DESLORATADINE AND SALTS THEREOF IN PREPARING DRUG FOR TREATING NEURODEGENERATIVE DISEASE RELATED TO MOTOR DYSFUNCTION” (NANJING UNIVERSITY OF CHINESE MEDICINE, priority 2021, published 2023).

Assays:
Format in all cases: in vivo
SOD1-G93A model mice [1] = experiment: Cage experimental test (limb grip strength); conditions: model DLT group 20 mg/kg/day vs model solvent group; age of 14 to 15 weeks; FIG. 3
Description: 3) Cage experimental test: The SOD1-G93A model mice show atrophy of the hind limbs and decreased grip strength of the limbs after the onset of the disease. The handing strength at the limbs of the mice is detected by the cage experimental test.
(§1) 1) Animal grouping: Experimental test mice B6SJL-BTg (SOD1-G93A) 1Gur/J (002726) are purchased from Jackson Laboratory in the United States. A total of 48 SOD1-G93A mice are obtained by the gene identification, and their littermates are used as negative control, and they are randomly divided into 4 groups, which are: (1) a wild-type solvent group (2) a wild-type DLT group (20 mg/kg/day), (3) a model solvent group and (4) a model DLT group (20 mg/kg/day). All mice are administered from the age of 56 days (8 weeks old), and 12 mice in each group are sacrificed from the beginning of administration to the age of 120 days. Histopathological, biochemical and immunological analyses are performed on tissues such as blood, muscles and spinal cords from eyeballs of mice. […]
4) Cage experimental test: From the 8th week, the test is carried out once a week. […] The maximum time for the mice to grip the cage cover is recorded, the maximum time is set to be 90 seconds, and the specific time is recorded when it is less than 90 seconds. […]

SOD1-G93A model mice [2] = experiment: Gait monitoring experimental test; conditions: model DLT group 20 mg/kg/day vs model solvent group; after the 15th week; FIG. 2
Description: 1) Animal grouping: Experimental test mice B6SJL-BTg (SOD1-G93A) 1Gur/J (002726) are purchased from Jackson Laboratory in the United States. A total of 48 SOD1-G93A mice are obtained by the gene identification, and their littermates are used as negative control, and they are randomly divided into 4 groups, which are: (1) a wild-type solvent group (2) a wild-type DLT group (20 mg/kg/day), (3) a model solvent group and (4) a model DLT group (20 mg/kg/day). All mice are administered from the age of 56 days (8 weeks old), and 12 mice in each group are sacrificed from the beginning of administration to the age of 120 days. Histopathological, biochemical and immunological analyses are performed on tissues such as blood, muscles and spinal cords from eyeballs of mice. Compounds are administered to the remaining mice until their deaths, which is used to detect the onset time and survival cycle of mice.
3) Gait monitoring experimental test: In order to obtain footprints, the forefeet and hind feet of SOD1-G93A model mice are painted with red and green non-toxic pigments, respectively. The mice walk along a track with a length of 50 cm and a width of 10 cm, and the gaits of the mice are recorded. […] Footprints of the mice are analyzed, and the average of three result statistics is used in the analysis for recording the gait lengths of the mice.

SOD1-G93A model mice [3] = experiment: Detection of onset time and survival cycle; conditions: model DLT group 20 mg/kg/day from the age of 56 days, p<0.05
Description: 4) Detection on onset time and survival cycle: The duration from onset to death of SOD1-G93A model mice is shorter, which is similar to the human ALS. Whether it can effectively delay the onset of the disease and prolong the survival cycle is an important indicator.
as §1, with “days.” for “days. Histopathological, biochemical and immunological analyses are performed on tissues such as blood, muscles and spinal cords from eyeballs of mice.”
5) Detection of onset time and survival cycle: The onset time of transgenic mice is defined as the dates when they first fall from the rotarod apparatus and will not persist for 180 seconds. The dates of deaths of the transgenic mice are defined as the deaths of the mice if the righting reflex cannot be completed within 30 seconds when the mice are lying on their sides, and the days are recorded as the death dates of the mice.

SOD1-G93A model mice [4] = experiment: Rotarod experimental test; conditions: model DLT group 20 mg/kg/day vs model solvent group; days 101 to 115; FIG. 1
Description: 1) Rotarod experimental test: SOD1-G93A model mice will have motor dysfunction when they are onset, and therefore, the motor coordination and balance function of the forelimb and hind limbs can be assessed by detecting the duration that the mice stay on the rotarod.
as §1, with “days.” for “days. Histopathological, biochemical and immunological analyses are performed on tissues such as blood, muscles and spinal cords from eyeballs of mice.”
2) Rotarod experimental test: From the age of 60 days, the motor function of SOD1-G93A model mice is detected by the rotarod apparatus. […] Motor coordination and balance are evaluated for each mouse by measuring the mouse's total movement time on the rotarod apparatus. Three trials are performed for each mouse, and the longest dwell time before falling is recorded, and the longest dwell time is set at 180 seconds.

`Clc1ccc2c(c1)CCc1cccnc1C2=C1CCNCC1` [desloratadine] was tested, and the “persistence in gripping the cage cover” value (SOD1-G93A model mice [1]) was “persist better”, the gait length analysis (SOD1-G93A model mice [2]) was “significantly better” and the “onset time (first fall from the rotarod)” value (SOD1-G93A model mice [3]; model solvent group 97.6±1.473 d, FIG. 4) was 103.4 ± 1.705 days. The “survival cycle (failure to complete the righting reflex within 30 seconds)” value (SOD1-G93A model mice [3]; model solvent group 126±1.721 d, FIG. 5) was 131.6 ± 1.51 days and the “time stayed on the rotarod” value (SOD1-G93A model mice [4]) was “much longer period of time”.
